Activity calls are given as the source filed them. No cut-off for these calls is given here. Bridge positions count the residues as written; N and C are the ends. Square brackets hold non-standard residues; d marks the D form. Peptide text beside a SMILES is read from it. Dab = NCC[C@H](N)C(=O)O
Columns and labels:
Format in all cases: functional, organism-based
Pseudoalteromonas [1] = assay: Antimicrobial activity against Pseudoalteromonas ER72M2 up to 50 ug/ml
Pseudoalteromonas [2] = assay: Induction of cell lysis in Pseudoalteromonas ER72M2 assessed as cytoplasmic membrane integrity at 50 ug/ml
Pseudoalteromonas [3] = assay: Induction of cell lysis in Pseudoalteromonas ER72M2 assessed as outer membrane permeability at 50 ug/ml
Pseudoalteromonas [4] = assay: Induction of cell lysis in Pseudoalteromonas ER72M2 assessed as depolarization of cytoplasmic membrane at 3 ug/ml in presence of gramicidin D
Pseudoalteromonas [5] = assay: Induction of cell lysis in Pseudoalteromonas ER72M2 assessed as binding of phenyldicarbaundecaborane at 3 ug/ml in presence of gramicidin D
Pseudoalteromonas [6] = assay: Induction of cell lysis in Pseudoalteromonas ER72M2 assessed as leakage of intracellular K+ at 3 ug/ml in presence of gramicidin D
Pseudoalteromonas [7] = assay: Induction of cell lysis in Pseudoalteromonas ER72M2 assessed as increase in accumulation of phenyldicarbaundecaborane at 2 ug/ml
Pseudoalteromonas [8] = assay: Induction of cell lysis in Pseudoalteromonas ER72M2 assessed as increase in accumulation of tetraphenylphonium at 2 ug/ml
Pseudoalteromonas [9] = assay: Induction of cell lysis in Pseudoalteromonas ER72M2 assessed as permeability across outer membrane at 2 ug/ml
Pseudoalteromonas [10] = assay: Induction of cell lysis in Pseudoalteromonas ER72M2 assessed as decipation of K+ gradient on cytoplasmic membrane treated at 50 ug/ml after 30 mins addition of Mg2+ and Ca2+
Pseudoalteromonas [11] = assay: Induction of cell lysis in Pseudoalteromonas ER72M2 assessed as intense membrane alkalization treated at 50 ug/ml after 30 mins addition of Mg2+ and Ca2+
Pseudoalteromonas [12] = assay: Induction of cell lysis in Pseudoalteromonas ER72M2 assessed as depolarization of cytoplasmic membrane treated at 50 ug/ml after 30 mins addition of Mg2+ and Ca2+
Pseudoalteromonas [13] = assay: Induction of cell lysis in Pseudoalteromonas ER72M2 assessed as accumulation of tetraphenylphonium treated at 50 ug/ml after 30 mins addition of Mg2+ and Ca2+
Pseudoalteromonas [14] = assay: Induction of cell lysis in Pseudoalteromonas ER72M2 assessed as extracellular K+ concentration treated at 50 ug/ml after 30 mins addition of Mg2+ and Ca2+
Pseudoalteromonas [15] = assay: Induction of cell lysis in Pseudoalteromonas ER72M2 assessed as accumulation of phenyldicarbaundecaborane treated at 50 ug/ml after 30 mins addition of Mg2+ and Ca2+
Pseudoalteromonas [16] = assay: Induction of cell lysis in Pseudoalteromonas ER72M2 assessed as increase in alkalization of membrane treated at 50 ug/ml after 30 mins incubation
Pseudoalteromonas [17] = assay: Induction of cell lysis in Pseudoalteromonas ER72M2 assessed as dipolarization of cytoplasmic membrane treated at 50 ug/ml after 30 mins incubation
Pseudoalteromonas [18] = assay: Induction of cell lysis in Pseudoalteromonas ER72M2 assessed as increase in extracellular concentration of tetraphenylphonium treated at 50 ug/ml after 30 mins incubation
Pseudoalteromonas [19] = assay: Induction of cell lysis in Pseudoalteromonas ER72M2 assessed as accumulation of phenyldicarbaundecaborane treated at 50 ug/ml after 30 mins incubation
Pseudoalteromonas [20] = assay: Induction of cell lysis in Pseudoalteromonas ER72M2 assessed as leakage of intracellular K+ treated at 50 ug/ml after 30 mins incubation
Pseudoalteromonas [21] = assay: Antimicrobial activity against Pseudoalteromonas ER72M2 after 50 hrs in presence of Ca2+ cation by epsilometer agar diffusion method
Pseudoalteromonas [22] = assay: Antimicrobial activity against Pseudoalteromonas ER72M2 after 50 hrs in presence of Mg2+ cation by epsilometer agar diffusion method
Pseudoalteromonas [23] = assay: Antimicrobial activity against Pseudoalteromonas ER72M2 after 50 hrs by epsilometer agar diffusion method
Pseudoalteromonas [24] = assay: Antimicrobial activity against Pseudoalteromonas ER72M2 assessed as after 50 hrs in presence of Mg2+ and Ca2+ by epsilometer agar diffusion method
Pseudoalteromonas [25] = assay: Induction of cell lysis in Pseudoalteromonas ER72M2 assessed as shrinkage of intracellular volume after 25 mins in presence of divalent cation by light microscopy
Pseudoalteromonas [26] = assay: Induction of cell lysis in Pseudoalteromonas ER72M2 assessed as decrease in culture turbidity treated at 50 ug/ml after 30 mins addition of Ca2+, Mg2+
Escherichia coli = assay: Induction of cell lysis in Escherichia coli HMS174 assessed as decrease in culture turbidity at 50 ug/ml
Pseudoalteromonas [27] = assay: Induction of cell lysis in Pseudoalteromonas A28 assessed as decrease in culture turbidity at 50 ug/ml
[28] = tested on: Pseudoalteromonas espejiana; assay: Induction of cell lysis in Pseudoalteromonas espejiana BAL31 assessed as decrease in culture turbidity at 50 ug/ml
Pseudoalteromonas [29] = assay: Induction of cell lysis in Pseudoalteromonas ER72M2 assessed as decrease in culture turbidity
Pseudoalteromonas [30] = assay: Induction of cell lysis in Pseudoalteromonas ER72M2 assessed as decrease in culture turbidity at 2 ug/ml in presence of gramicidin D
Pseudoalteromonas [31] = assay: Induction of cell lysis in Pseudoalteromonas ER72M2 at 10 ug/ml in presence of arsenate
Pseudoalteromonas [32] = assay: Induction of cell lysis in Pseudoalteromonas ER72M2 at 10 ug/ml
Pseudoalteromonas [33] = assay: Induction of cell lysis in Pseudoalteromonas ER72M2 assessed as voltage dissipation in presence of KCN
Pseudoalteromonas [34] = assay: Induction of cell lysis in Pseudoalteromonas ER72M2 assessed as decrease in culture turbidity at 2 ug/ml in presence of nigericin
Pseudoalteromonas [35] = assay: Induction of cell lysis in Pseudoalteromonas ER72M2 assessed as decrease in culture turbidity treated at 50 ug/ml after 30 mins addition of Ca2+
Pseudoalteromonas [36] = assay: Induction of cell lysis in Pseudoalteromonas ER72M2 assessed as decrease in culture turbidity treated at 50 ug/ml after 30 mins addition of Mg2+
Pseudoalteromonas [37] = assay: Induction of cell lysis in Pseudoalteromonas ER72M2 assessed as complete lysis treated at 50 ug/ml after 30 mins addition of Ca2+, Mg2+
Pseudoalteromonas [38] = assay: Induction of cell lysis in gramicidin D-deplolarized Pseudoalteromonas ER72M2 assessed as decrease in culture turbidity at 2 ug/ml

Question: With `CC(C)C[C@@H]1NC(=O)[C@@H](Cc2ccccc2)NC(=O)[C@H](CCN)NC(=O)[C@@H](NC(=O)[C@H](CCN)NC(=O)[C@@H](N)[C@@H](C)O)CCNC(=O)[C@H]([C@@H](C)O)NC(=O)[C@H](CCN)NC(=O)[C@H](CCN)NC1=O` (H-T[Dab][Dab][Dab][dF]L[Dab][Dab]T; lactam 3-C) as the compound, how does the Activity (Pseudoalteromonas [1]) read?
Answer: inactive

Question: And the Activity (Pseudoalteromonas [2])?
Answer: inactive

Question: What about the Activity (Pseudoalteromonas [3]) of the same compound?
Answer: Active

Question: POLYMYXIN B was tested. Which Activity (Pseudoalteromonas [4]) did it give?
Answer: Active

Question: And the Activity (Pseudoalteromonas [5])?
Answer: Active

Question: What about the Activity (Pseudoalteromonas [6]) of the same compound?
Answer: Active

Question: What about the Activity (Pseudoalteromonas [7]) of the same compound?
Answer: Active

Question: And the Activity (Pseudoalteromonas [8])?
Answer: Active

Question: And the Activity (Pseudoalteromonas [9])?
Answer: inactive

Question: What about the Activity (Pseudoalteromonas [10]) of the same compound?
Answer: Active

Question: And the Activity (Pseudoalteromonas [11])?
Answer: Active

Question: What about the Activity (Pseudoalteromonas [12]) of the same compound?
Answer: Active

Question: And the Activity (Pseudoalteromonas [13])?
Answer: Active

Question: And the Activity (Pseudoalteromonas [14])?
Answer: Active

Question: What about the Activity (Pseudoalteromonas [15]) of the same compound?
Answer: Active

Question: What about the Activity (Pseudoalteromonas [16]) of the same compound?
Answer: Active

Question: What about the Activity (Pseudoalteromonas [17]) of the same compound?
Answer: Active

Question: What about the Activity (Pseudoalteromonas [18]) of the same compound?
Answer: Active

Question: And the Activity (Pseudoalteromonas [19])?
Answer: Active

Question: And the Activity (Pseudoalteromonas [20])?
Answer: Active

Question: And the MIC (Pseudoalteromonas [21])?
Answer: 0.11 µg/mL

Question: And the MIC (Pseudoalteromonas [22])?
Answer: 0.33 µg/mL

Question: And the MIC (Pseudoalteromonas [23])?
Answer: 0.33 µg/mL

Question: And the MIC (Pseudoalteromonas [24])?
Answer: 0.42 µg/mL

Question: What about the Activity (Pseudoalteromonas [25]) of the same compound?
Answer: Active

Question: What about the Activity (Pseudoalteromonas [26]) of the same compound?
Answer: inactive

Question: What about the Activity (Escherichia coli) of the same compound?
Answer: Active

Question: And the Activity (Pseudoalteromonas [27])?
Answer: Active

Question: And the Activity [28]?
Answer: Active

Question: What about the Activity (Pseudoalteromonas [29]) of the same compound?
Answer: Dose-dependent effect

Question: What about the Activity (Pseudoalteromonas [3]) of the same compound?
Answer: Active

Question: And the Activity (Pseudoalteromonas [30])?
Answer: inactive

Question: What about the Activity (Pseudoalteromonas [31]) of the same compound?
Answer: Active

Question: What about the Activity (Pseudoalteromonas [32]) of the same compound?
Answer: Active

Question: What about the Activity (Pseudoalteromonas [33]) of the same compound?
Answer: Active

Question: What about the Activity (Pseudoalteromonas [34]) of the same compound?
Answer: Active

Question: What about the Activity (Pseudoalteromonas [35]) of the same compound?
Answer: Active

Question: And the Activity (Pseudoalteromonas [36])?
Answer: Active

Question: What about the Activity (Pseudoalteromonas [37]) of the same compound?
Answer: inactive

Question: And the Activity (Pseudoalteromonas [38])?
Answer: inactive

From ChEMBL document CHEMBL1137644, “Polymyxin B induces lysis of marine pseudoalteromonads” (Antimicrob Agents Chemother, 2007)
